Laboratory results published in PubChem BioAssay AID2060328 (Molecular Pharmacology Branch, DTP, NCI, 2025).

Tested on: MDA-MB-231 multicell spheroids, viability (%T/C)
Experiment: Anticancer human tumor MDA-MB-231 cell line growth inhibition [IpAb];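 also: viability read after seven days of drug exposure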;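 as to viability, T/C: 100% = DMSO vehicle control viability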
Conditions: for IC50: curve of first compound; for viability, T/C: stronger effect = lower value
From the text: Combinatorial screen of targeted agents with ipatasertib and abemaciclib in multi-cell type tumor spheroids
A high-throughput screen of multi-cell type tumor spheroids was designed to identify active combinations of targeted small molecules and ipatasertib or abemaciclib. Complex spheroids include a stromal component modeled by human endothelial cells (HUVEC) and fibroblasts modeled by human mesenchymal stem cells (MSCs). The concentration ranges selected for each drug and investigational agent were based upon clinically achievable concentrations if the clinical Cmax of the agent was known.
Compounds. The drugs and investigational agents: ipatasertib (NSC767898), abemaciclib(NSC768073), selumetinib (NSC741078), trametinib (758246), adavosertib (NSC754352), everolimus (NSC733504), sapanisertib (NSC764658), vemurafenib (NSC761431), venetoclax (NSC766270), copanlisib (NSC809693), apelisib (NSC765974), palbociblib (NSC758247), vemurafenib (NSC761431), dabrafenib (NSC764134), ravoxertinib (NSC781343), BMS-387032 (NSC767048), sotorasib (NSC818433), talazoparib (NSC767125) and afursertib (NSC778305), were obtained from the National Cancer Institute (NCI) Developmental Therapeutics Program Chemical Repository. The FDA-approved anticancer drug set is available from the NCI Developmental Therapeutics Program. […] The stock solutions were prepared in dimethyl sulfoxide (DMSO, Sigma-Aldrich, St. Louis, MO, cat. D2650) at 800-fold the tested concentration and stored at -70 degrees C prior to their use. All drugs and investigational agents were tested over a range starting from a high concentration at or near the clinical Cmax and decreasing in half-log increments. If the clinical Cmax for an agent had not been determined, the highest concentration tested was 10 microM.
NCI60 Cell Culture. NCI60 cell lines were obtained from the NCI Developmental Therapeutics Program Tumor Repository. For each lot of cells, the Repository performed Applied Biosystems AmpFLSTR Identifiler testing with PCR amplification to confirm consistency with the published Identifier STR profile for each cell line. Cells were kept in continuous culture for no more than 20 passages. The optimal seeding densities for each of the cell lines at each time point assessed were determined prior to performing the concentration response studies. Briefly, the NCI60 human tumor lines were grown as monolayers in RPMI 1640 medium supplemented with 10% FBS and 2 mmol/L L-glutamine.
An additional 9 lines were from the NCI60 cell line panel including MDA-MB-231 breast carcinoma, MDA-MB-468 breast carcinoma, MCF7 breast carcinoma, Hs578T breast carcinoma, MALME-3M melanoma, SK-MEL-2 melanoma, SK-OV-3 ovarian carcinoma, DU-145 prostate carcinoma, PC-3 prostate carcinoma, all cell lines along with major genetic alterations are listed on Table 2. Pooled donor human umbilical vein endothelial cells (HUVEC, Lonza, cat. CC-2519) and human mesenchymal stem cells (hMSC, Lonza, cat. PT-2501) were purchased from Lonza (Walkersville, MD).
PDMR cell lines were grown in complete medium (DC medium): Dulbecco's modified Eagle's medium (DMEM)/F12 supplemented with 5% fetal bovine serum (FBS), 2 mM L-glutamine, 100 U/mL penicillin and 100 µg/ml streptomycin, 0.4 µg/ml hydrocortisone, 10 ng/ml epidermal growth factor (EGF) recombinant human protein, 24 µg/mL adenine, and 0.1 mg/mL primocin. During culture from frozen stock vials, PDMR cells were cultured in the same medium containing 10 µM Y-27632 (see Table 3). The PDCs were cultured in complete DMEM/F12 media without 10 microM Y-27632 dihydrochloride for at least two passages prior to the screen. The pooled donor HUVEC and hMSC were cultured in endothelial cell growth medium 2 (PromoCell, Heidelberg, Germany, cat. C-22011) and mesenchymal stem cell growth medium 2 (PromoCell, cat. C-28009), respectively. For all experiments, HUVEC and hMSC were used at passages </=5.
[…]

[1] = second compound 0.1 µM, first compound 0.0316 µM
[2] = second compound 0.1 µM, first compound 0.1 µM
[3] = second compound 0.1 µM, first compound 0.316 µM
[4] = second compound 0.1 µM, first compound 1 µM
[5] = second compound 0.316 µM, first compound 0.0316 µM
[6] = second compound 0.316 µM, first compound 0.1 µM
[7] = second compound 0.316 µM, first compound 0.316 µM
[8] = second compound 0.316 µM, first compound 1 µM
[9] = second compound 1 µM, first compound 0.0316 µM
[10] = second compound 1 µM, first compound 0.1 µM
[11] = second compound 1 µM, first compound 0.316 µM
[12] = second compound 1 µM, first compound 1 µM
[13] = second compound 3.16 µM, first compound 0.0316 µM
[14] = second compound 3.16 µM, first compound 0.1 µM
[15] = second compound 3.16 µM, first compound 0.316 µM
[16] = second compound 3.16 µM, first compound 1 µM
[17] = second compound 10 µM, first compound 0.0316 µM
[18] = second compound 10 µM, first compound 0.1 µM
[19] = second compound 10 µM, first compound 0.316 µM
[20] = second compound 10 µM, first compound 1 µM

In the case of COc1c(OCCCN2CCOCC2)ccc2c3n(c(=NC(=O)c4cnc(N)nc4)nc12)CCN3 + CC(C)NCC(C(=O)N1CCN(c2ncnc3c2C(C)CC3O)CC1)c1ccc(Cl)cc1, the IC50 (second compound 0.1 µM) is reported as 0.0509 µM, the IC50 (second compound 0.316 µM) is reported as 0.0277 µM and the IC50 (second compound 1 µM) is reported as 0.0161 µM. For the same compound, the IC50 (second compound 3.16 µM) was 0.0047 µM, the IC50 (second compound 10 µM) was under 0.00316 µM and the viability, T/C (second compound 0.1 µM, first compound 0.00316 µM) was 85.3%. The viability, T/C (second compound 0.1 µM, first compound 0.01 µM) was 70.1%, the viability, T/C [1] was 57.4% and the viability, T/C [2] was 42.3%. It also gave a viability, T/C [3] of 34.1%, a viability, T/C [4] of 40.3% and a viability, T/C (second compound 0.316 µM, first compound 0.00316 µM) of 71%. For the same compound, the viability, T/C (second compound 0.316 µM, first compound 0.01 µM) was 59.4%, the viability, T/C [5] was 51.7% and the viability, T/C [6] was 37.5%. For the same compound, the viability, T/C [7] was 31.7%, the viability, T/C [8] was 41% and the viability, T/C (second compound 1 µM, first compound 0.00316 µM) was 62.6%. The viability, T/C (second compound 1 µM, first compound 0.01 µM) was 54.4%, the viability, T/C [9] was 43.9% and the viability, T/C [10] was 36.3%. The viability, T/C [11] was 28.2%, the viability, T/C [12] was 41.9% and the viability, T/C (second compound 3.16 µM, first compound 0.00316 µM) was 52.1%. For the same compound, the viability, T/C (second compound 3.16 µM, first compound 0.01 µM) was 47%, the viability, T/C [13] was 37.1% and the viability, T/C [14] was 30.4%. It also gave a viability, T/C [15] of 25.2%, a viability, T/C [16] of 32.5% and a viability, T/C (second compound 10 µM, first compound 0.00316 µM) of 33.6%. The viability, T/C (second compound 10 µM, first compound 0.01 µM) was 31.9%, the viability, T/C [17] was 28.2% and the viability, T/C [18] was 22.6%. The viability, T/C [19] was 20% and the viability, T/C [20] was 31.1%.
In the case of C=CCn1c(=O)c2cnc(Nc3ccc(N4CCN(C)CC4)cc3)nc2n1-c1cccc(C(C)(C)O)n1 + CC(C)NCC(C(=O)N1CCN(c2ncnc3c2C(C)CC3O)CC1)c1ccc(Cl)cc1, the IC50 (second compound 0.1 µM) is reported as 0.219 µM, the IC50 (second compound 0.316 µM) is reported as 0.188 µM and the IC50 (second compound 1 µM) is reported as 0.17 µM. For the same compound, the IC50 (second compound 3.16 µM) was 0.0914 µM, the IC50 (second compound 10 µM) was under 0.0316 µM and the viability, T/C [1] was 93%. For the same compound, the viability, T/C [2] was 86.6%, the viability, T/C [3] was 32.9% and the viability, T/C [4] was 17.8%. It also gave a viability, T/C (second compound 0.1 µM, first compound 3.16 µM) of 16.4%, a viability, T/C (second compound 0.1 µM, first compound 10 µM) of 20.5% and a viability, T/C [5] of 92.5%. The viability, T/C [6] was 74.4%, the viability, T/C [7] was 30.1% and the viability, T/C [8] was 17.3%. The viability, T/C (second compound 0.316 µM, first compound 3.16 µM) was 15.3%, the viability, T/C (second compound 0.316 µM, first compound 10 µM) was 19.6% and the viability, T/C [9] was 76.7%. For the same compound, the viability, T/C [10] was 68.4%, the viability, T/C [11] was 28.3% and the viability, T/C [12] was 16.7%. For the same compound, the viability, T/C (second compound 1 µM, first compound 3.16 µM) was 15.5%, the viability, T/C (second compound 1 µM, first compound 10 µM) was 17.4% and the viability, T/C [13] was 60.6%. It also gave a viability, T/C [14] of 48.8%, a viability, T/C [15] of 26.2% and a viability, T/C [16] of 15.1%. For the same compound, the viability, T/C (second compound 3.16 µM, first compound 3.16 µM) was 14.6%, the viability, T/C (second compound 3.16 µM, first compound 10 µM) was 16.9% and the viability, T/C [17] was 44.6%. It also gave a viability, T/C [18] of 32.5%, a viability, T/C [19] of 21.2% and a viability, T/C [20] of 15.3%. The viability, T/C (second compound 10 µM, first compound 3.16 µM) was 15% and the viability, T/C (second compound 10 µM, first compound 10 µM) was 16.6%.
